Values joined by “and” are separate entries in the source; they are usually repeats but may differ in a detail not shown here. Equal values may be shown once. Read-outs that look alike come from different tables or passages of the source. Numbered stars: 1 amine (or outer) side, 2 acyl side, 3 side chain; on linkers, the order of the positions; unused ones are H or OH. Bridge positions count the residues as written; N and C are the ends. Square brackets hold non-standard residues; d marks the D form. Peptide text beside a SMILES is read from it. I, II: the chains in the order shown. Actinocin(9to1) = Cc1c2oc3c(C)ccc(C(=O)[*:1])c3nc-2c(C(=O)[*:2])c(N)c1=O; NMeV = CN[C@H](C(=O)O)C(C)C; Sar = CNCC(=O)O
Experiments:
DC-3F/ADII cells [1] = conditions: for (B)/(A): IC50 ratio DC-3F/ADII to DC-3F, * collaterally sensitive
DC-3F hamster lung cells [2] = assay: Cytotoxicity toward DC-3F hamster lung cells
DC-3F/ADX cells = assay: Cytotoxicity toward DC-3F/ADX cells; type: cell-based, hamster; conditions: for IC50: DC3F/ADX, DC-3F/ADX; for (C)/(A): IC50 ratio DC-3F/ADX to DC-3F, * collaterally sensitive
DC-3F/ADII cells [3] = assay: cells; conditions: Mesocricetus auratus, DC3F
CCRF-CEM cells [4] = assay: Cytotoxicity / growth inhibition of CCRF-CEM leukemic cells
CCRF-CEM/VM-1 cells = assay: Cytotoxicity toward VM-26-resistant CCRF-CEM/VM-1 cells (mutated Topo II gene); type: cell-based, human
CCRF-CEM/VBL100 cells [5] = assay: cells; conditions: Homo sapiens
CCRF-CEM/VLB-100 cells = assay: Intracellular accumulation of [3H]vinblastine in CCRF-CEM/VLB-100 cells; type: cell-based, human; conditions: 30 μM
Experimental: (§1) *Cells were preloaded with [^3 H]
(§2) times (or without wash) with 100 ml cold medium to remove extracellular
(§3) with or without a reverse prenyl compound or an MDRreversing agent. Cells
(§4) were then separated from radioactive medium by microfuge oillayer method.
(§5) Extracellular space counts carried down # by cells (^3 HInulin space
(§6) were subtracted from the total radioactive counts.

CCRF-CEM/VBL100 cells [6] = tested on: CCRF-CEM/VBL100 cells
CCRF-CEM cells [7] = assay: Intracellular accumulation of [3H]vinblastine in CCRF-CEM cells; type: cell-based, human; conditions: 30 μM
Experimental: as §1, §2, §3, §4, §5, §6

DC-3F hamster lung cells [8] = conditions: dc-3f cells
CCRF-CEM cells [9] = tested on: CCRF-CEM cells
[10] = Mesocricetus auratus, DC3F, read-out: IC50 (A), mean ± spread, mean of the determinations
[11] = Mesocricetus auratus, DC3F, read-out: IC50 (A), single determinations
[12] = read-out: IC50 (A), single determinations
[13] = Homo sapiens, Table 5A, single determinations
[14] = Homo sapiens, read-out: IC50, mean ± spread, Table 5A, CCRF-CEM, mean
[15] = Table 5A, single determinations
[16] = read-out: IC50, mean ± spread, Table 5A, CCRF-CEM/VLB, mean
[17] = Homo sapiens, CCRF-CEM, Table 5A, CCRF-CEM/VM-1, read-out: IC50
[18] = Table 5A, CCRF-CEM/VLB, * collaterally sensitive vs parent
[19] = Homo sapiens, read-out: IC50 of reversing agent, Table 6B, CCRF-CEM
[20] = read-out: IC50 of reversing agent, Table 6B, CCRF-CEM/VBL

## Cc1c2oc3c(C)ccc(C(=O)N[C@@H]4C(=O)N[C@H](C(C)C)C(=O)N5CCC[C@H]5C(=O)N(C)CC(=O)N(C)[C@@H](C(C)C)C(=O)O[C@@H]4C)c3nc-2c(C(=O)N[C@@H]2C(=O)N[C@H](C(C)C)C(=O)N3CCC[C@H]3C(=O)N(C)CC(=O)N(C)[C@@H](C(C)C)C(=O)O[C@@H]2C)c(N)c1=O [Actinomycin D, reference compound] (I: T[dV]P[Sar][NMeV] / II: T[dV]P[Sar][NMeV]; ester I:1-I:C, II:1-II:C; linker I:N-II:N via Actinocin(9to1))
DC-3F/ADII cells [1]
  (B)/(A), resistance in words: Resistant
  (B)/(A): 349.6 X
DC-3F hamster lung cells [2]; [10]
  IC50: 0.00026 ± 5e-05 µM
DC-3F hamster lung cells [2]; [11]
  IC50: 0.00021 µM
DC-3F hamster lung cells [2]; [12]
  IC50: 0.00031 µM
DC-3F/ADX cells
  (C)/(A), resistance in words: Very Resistant
  IC50: 1.23 µM
  (C)/(A): 4738.5 X
DC-3F/ADII cells [3]; read-out: IC50 (B), DC-3F/ADII
  IC50: 0.0909 µM

## C=CC(C)(C)C12CC3C(=O)NCC(=O)N3C1N(C(C)=O)c1ccccc12 (stereo not shown) [5N-Ac-8-desMe-DKP, 5N-acetyl diketopiperazine]
CCRF-CEM cells [4]; [13]
  IC50: 21.4 µM
CCRF-CEM cells [4]; [14]
  IC50: 22.1 ± 0.7 µM
CCRF-CEM cells [4]; [15]
  IC50: 22.7 µM
CCRF-CEM/VM-1 cells; Homo sapiens, CCRF-CEM
  IC50: 35.8 µM
CCRF-CEM/VBL100 cells [5]; [16]
  IC50: 19.9 ± 13 µM

## C=CC(C)(C)C12CC3C(=O)N(C(C)=O)C(C)C(=O)N3C1Nc1ccccc12 (stereo not shown) [Imide-Ac-DKP 14(A), imide acetate diketopiperazine]
CCRF-CEM cells [4]; [13]
  IC50: 48.1 µM
CCRF-CEM cells [4]; Homo sapiens, Table 6, CCRF-CEM
  IC50: 48.1 µM
CCRF-CEM cells [4]; [14]
  IC50: 61 ± 13.1 µM
CCRF-CEM cells [4]; [15]
  IC50: 47.9 µM and 87 µM
CCRF-CEM/VLB-100 cells; washed
  [3H]vinblastine accumulation: 4.52 fmole/10^3 cells
CCRF-CEM/VLB-100 cells; without wash
  [3H]vinblastine accumulation: 18.93 fmole/10^3 cells
CCRF-CEM/VM-1 cells; [17]
  IC50: 50 µM
CCRF-CEM/VBL100 cells [6]; [18]
  IC50: 36.2 µM
CCRF-CEM/VBL100 cells [5]; [18]
  IC50: 39.7 µM
CCRF-CEM/VBL100 cells [5]; Table 6, CCRF-CEM/VBL
  IC50: 39.7 µM
CCRF-CEM/VBL100 cells [5]; [16]
  IC50: 38 ± 1.8 µM
CCRF-CEM cells [7]; washed
  [3H]vinblastine accumulation: 30.18 fmole/10^3 cells
CCRF-CEM cells [7]; without wash
  [3H]vinblastine accumulation: 34.87 fmole/10^3 cells

## C=CC(C)(C)C12CC3c4nc5ccccc5c(=O)n4C(C)C(=O)N3C1N(C(=O)C(F)(F)F)c1ccccc12 (stereo not shown) [5N F3 -Ac-Ard 3F, 5N-Tri-F Acetyl Ardeemin]
CCRF-CEM cells [4]; [13]
  IC50: 37.5 µM
CCRF-CEM cells [4]; [19]
  IC50: 37.6 µM
CCRF-CEM/VLB-100 cells; washed
  [3H]vinblastine accumulation: 7.28 fmole/10^3 cells
CCRF-CEM/VLB-100 cells; without wash
  [3H]vinblastine accumulation: 32.68 fmole/10^3 cells
CCRF-CEM/VM-1 cells; [17]
  IC50: 52.6 µM
CCRF-CEM/VBL100 cells [5]; [18]
  IC50: 17.2 µM
CCRF-CEM/VBL100 cells [5]; [20]
  IC50: 17.2 µM
CCRF-CEM cells [7]; washed
  [3H]vinblastine accumulation: 28.44 fmole/10^3 cells
CCRF-CEM cells [7]; without wash
  [3H]vinblastine accumulation: 34.01 fmole/10^3 cells

## C=CC(C)(C)C12CC3c4nc5ccccc5c(=O)n4CC(=O)N3C1Nc1ccccc12 (stereo not shown) [8-Desmethyl-Ardeemin]
DC-3F/ADII cells [1]
  (B)/(A): 3.5 X
CCRF-CEM cells [4]; [19]
  IC50: 14.3 µM
CCRF-CEM/VM-1 cells; Homo sapiens, CCRF-CEM, Table 6B, CCRF-CEM/VM-1, read-out: IC50 of reversing agent
  IC50: 18.1 µM
DC-3F hamster lung cells [2]; [10]
  IC50: 9.58 ± 1.29 µM
DC-3F hamster lung cells [2]; [11]
  IC50: 10.9 µM
DC-3F hamster lung cells [2]; [12]
  IC50: 8.29 µM
CCRF-CEM/VBL100 cells [5]; [20]
  IC50: 18.8 µM
DC-3F/ADX cells
  IC50: 4.7 µM
  (C)/(A): 0.49 X
DC-3F/ADII cells [3]; read-out: IC50 (B)
  IC50: 26.5 µM

## C=CCC12CC3c4nc5ccccc5c(=O)n4C(C)C(=O)N3C1N(C(C)=O)c1ccccc12 (stereo not shown) [5-N-Ac"Allyl" ardeemin, "Allyl" 5-N-acetylardeemin]
DC-3F/ADII cells [1]; dc-3f/adii cells
  IC50: 5.21 µM
  IC90: 34.7 µM
CCRF-CEM cells [4]; Homo sapiens, human leukemic CCRF-CEM cells
  IC50: 53.3 µM
DC-3F hamster lung cells [8]
  IC80: 17.4 µM
  IC90: 56.2 µM
CCRF-CEM/VLB-100 cells; washed
  [3H]vinblastine accumulation: 6.18 fmole/10^3 cells
CCRF-CEM/VLB-100 cells; without wash
  [3H]vinblastine accumulation: 27.21 fmole/10^3 cells
CCRF-CEM/VM-1 cells; ccrf-cem/vm-1 cells
  IC50: 45 µM
  IC90: 916 µM
CCRF-CEM cells [9]
  IC50: 53.3 µM
  IC90: 888 µM
DC-3F hamster lung cells [2]; Mesocricetus auratus, DC3F, relative cytotoxicity, DC-3F
  IC50: 17.4 µM
CCRF-CEM/VBL100 cells [6]; ccrf-cem/vbl100 cells
  IC50: 35.8 µM
  IC90: 81.1 µM
CCRF-CEM cells [7]; washed
  [3H]vinblastine accumulation: 28.88 fmole/10^3 cells
CCRF-CEM cells [7]; without wash
  [3H]vinblastine accumulation: 33.35 fmole/10^3 cells

## C=CC(C)(C)C12CC3C(=O)NCC(=O)N3C1N(C=O)c1ccccc12 (stereo not shown) [5N-formyl-8-desMe-DKP]
CCRF-CEM cells [4]; [13]
  IC50: 200 µM
CCRF-CEM/VBL100 cells [5]; [18]
  IC50: 372 µM
